Experimental data published in patent publication US20090209460A1, “COMPOSITIONS AND METHODS FOR TREATING OBESITY AND RELATED METABOLIC DISORDERS” (Amylin Pharmaceuticals, Inc., priority 2005, published 2009).
Where two headings read alike, the source gives them in different places. Residues, ends and D or L forms follow the SMILES beside them.

Columns and labels:
[1] = body weight and food intake in mice with diet induced obesity (mouse DIO), osmotic pump; type: in vivo
Description: The effect of FN38 and related compounds on body weight and food intake in obese subjects was investigated. Mice having diet induced obesity (DIO) were used. All in vivo tests were performed with peripheral injections of peptide. […] 4-week-old male C57BL/6 mice were group housed with water and a standard pelleted mouse chow diet available ad libitum, except as noted, and were maintained on a on a high fat diet (58% kcal from fat) for 4 weeks prior to the experiment. At the end of fattening period, osmotic pumps were implanted interscapularly under anesthesia. Mice received pumps continuously delivering vehicle (50% DMSO in water or saline) or polypeptide at the dose indicated. Food intake and body weight measurements were obtained weekly.

[2] = system: NIH/Swiss mice; experiment: acute food intake assay, lean overnight-fasted NIH/Swiss mice, intraperitoneal injection; type: in vivo, mouse; conditions: for reduction of food intake: administered systemically (i.p. to mice), dose and time not stated; for FI (60′, 200): % change relative to control, 60 min; for Food Intake Inhibition: mouse assay, dose of 200 mg/kg, measured at 60 minutes
Summary of the method: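 Overnight-fasted lean female NIH/Swiss mice (8-24 weeks, group housed) received vehicle or peptide intraperitoneally at time 0, then pre-weighed standard chow. Food consumed was weighed at 30, 60 and 120 min and expressed as % change versus control.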

[3] = cumulative weight gain in rats with diet induced obesity (rat DIO), subcutaneous pump for seven days; type: in vivo; conditions: subcutaneously continuously by pump for seven days
Description: Both compounds were administered subcutaneously continuously by pump for seven days at the rate and dosage indicated.

[4] = system: mice with diet induced obesity (mouse DIO); experiment: cumulative food intake in mouse DIO after IP injection (FIGS. 6 and 7); type: in vivo; conditions: injected IP at t=0; measured at 30, 60, 120 and 180 min
Description: The activities of the following compounds are shown: A, [MimicB36] FN38; B, [His37] FN38; C,
[His35] FN38; D, [Phe33] FN38; E, [Val33] FN38; F, Des-(Ser6,Lys7,Thr8,Gln9) FN38; G, Des-Val16,Val17-FN38; H, [Phe31] FN38; I, Des-(Val16,Val17,Phe24,Ala25,Ser26,Gln27) FN38; J, Des-(Phe1,Leu2,Phe3,His4)FN38; and K, Des-(Phe24,Ala25,Ser26,Gln27)-FN38. […] Points represent mean±sd of n=4 cages (3 mice/cage). Peptide was injected IP at t=0. Food was introduced immediately after injection and amount consumed measured at t=30, 60, 120, and 180 min. In the figure, * p<0.05 vs. vehicle control; ANOVA, Dunnett's test.

[5] = brush border membrane (BBM) stability assay; type: in vitro ADME, human; conditions: brush border membrane extract (e.g. kidney)
Summary of the method: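 Peptides digested up to 5 h at 37 °C with human brush border membrane extract (e.g. kidney). Timepoints quenched with 50% ACN, 1% FA, centrifuged, intact peptide quantified by selected-ion mass spectrometry. Expressed as percent stable.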

[6] = system: rats; conditions: 10 μg ICV dose; cited from earlier work
[7] = degradation in vitro in plasma, serial MS analyses; type: in vitro ADME
Description: Doses at which we observed herein an absence of anorectic effect (in mice) were 1-2 orders of magnitude higher than the lower U8 dose for maximal hemodynamic effects in dogs (Sumi et al. 1987).

[8] = percent compound remaining after a 5 hour incubation, human brush border membrane assay, read-out: hBBM

| SMILES | reduction of food intake [2] | FI (60′, 200) ([2]; food intake) [%] | cumulative food intake in mouse DIO (FIGS. 6A, 6B, 7A, 7B) [4] | remaining at 5 h [5, 8] [%] | Food Intake Inhibition [2] [%] | further results |
| --- | --- | --- | --- | --- | --- | --- |
| CC(C)C[C@H](NC(=O)[C@H](Cc1ccccc1)NC(=O)[C@H](Cc1ccccc1)NC(=O)CNC(=O)CNC(=O)[C@H](CO)NC(=O)[C@@H]1CCCN1C(=O)[C@H](C)NC(=O)[C@@H](NC(=O)[C@@H]1CCCN1C(=O)CNC(=O)[C@H](CCC(N)=O)NC(=O)[C@H](Cc1ccc(O)cc1)NC(=O)[C@H](CCC(=O)O)NC(=O)[C@H](CC(N)=O)NC(=O)[C@@H](NC(=O)[C@H](CCCCN)NC(=O)[C@@H](N)Cc1ccc(O)cc1)C(C)C)C(C)C)C(=O)N[C@@H](Cc1ccccc1)C(=O)N[C@@H](CCCNC(=N)N)C(=O)N1CCC[C@H]1C(=O)N[C@@H](CCCNC(=N)N)C(=O)N[C@@H](CC(N)=O)C(N)=O [Compound 163293, reference compound] (H-YKVNEYQGPVAPSGGFFLFRPRN-NH2; N-terminus assumed) | up to 66% | −37.5 | – | – | – | body weight gain and food intake in the DIO assay ([1]; 75 nmol/kg/day): decreased body weight gain and food intake; d 14 BWt loss ([1]; mouse DIO, day 14): 3.7%; change in intake (effectiveness) ([2]; food intake over 30 min, mice): −60%; ED50 at t = 60 ([2]; food intake, t = 60): 0.017 mg/kg; ED50 for effect on food intake ([2]; over 30 min, i.p., mice): 6.2 nmol/kg; cumulative weight gained in rat DIO (FIG. 5) [3]: reduction of cumulative weight gained |
| CC(C)C[C@H](NC(=O)[C@H](CCCCN)NC(=O)[C@H](CCC(N)=O)NC(=O)[C@@H](NC(=O)[C@H](CCCCN)NC(=O)[C@H](CO)NC(=O)[C@H](Cc1ccc(O)cc1)NC(=O)[C@H](Cc1c[nH]cn1)NC(=O)[C@H](Cc1ccccc1)NC(=O)[C@H](CC(C)C)NC(=O)[C@@H](N)Cc1ccccc1)[C@@H](C)O)C(=O)NCC(=O)N[C@@H](CCCCN)C(=O)N[C@@H](CO)C(=O)N[C@@H](CC(N)=O)C(=O)N[C@H](C(=O)N[C@H](C(=O)N[C@@H](CCC(=O)O)C(=O)N[C@@H](CCC(=O)O)C(=O)N[C@@H](CC(C)C)C(=O)N[C@@H](CCC(N)=O)C(=O)N[C@@H](CO)C(=O)N1CCC[C@H]1C(=O)N[C@@H](Cc1ccccc1)C(=O)N[C@@H](C)C(=O)N[C@@H](CO)C(=O)N[C@@H](CCC(N)=O)C(=O)N[C@@H](CO)C(=O)N[C@@H](CCCNC(=N)N)C(=O)NCC(=O)N[C@@H](Cc1ccc(O)cc1)C(=O)N[C@@H](Cc1ccccc1)C(=O)N[C@@H](Cc1ccccc1)C(=O)N[C@@H](Cc1ccccc1)C(=O)N[C@@H](CCCNC(=N)N)C(=O)N1CCC[C@H]1C(=O)N[C@@H](CCCNC(=N)N)C(=O)N[C@@H](CC(N)=O)C(N)=O)C(C)C)C(C)C [[Phe33]FN38] (H-FLFHYSKTQKLGKSNVVEELQSPFASQSRGYFFFRPRN-NH2; N-terminus assumed) | – | – | either not active or weakly active | 67 | −32 | – |
| CC(C)C[C@H](NC(=O)[C@H](Cc1ccccc1)NC(=O)[C@H](Cc1ccc(O)cc1)NC(=O)CNC(=O)[C@H](CCCNC(=N)N)NC(=O)[C@H](CO)NC(=O)[C@H](CCC(N)=O)NC(=O)[C@H](CO)NC(=O)[C@H](C)NC(=O)[C@H](Cc1ccccc1)NC(=O)[C@@H]1CCCN1C(=O)[C@H](CO)NC(=O)[C@H](CCC(N)=O)NC(=O)[C@H](Cc1ccccc1)NC(=O)[C@H](CCC(=O)O)NC(=O)[C@H](CCC(=O)O)NC(=O)[C@H](CC(=O)O)NC(=O)[C@@H](NC(=O)[C@H](CCCNC(=N)N)NC(=O)[C@@H](N)Cc1ccccc1)C(C)C)C(=O)N[C@@H](Cc1ccccc1)C(=O)N[C@@H](CCCNC(=N)N)C(=O)N1CCC[C@H]1C(=O)N[C@@H](CCCNC(=N)N)C(=O)N[C@@H](CC(N)=O)C(N)=O [Compound 165054, reference compound] (H-FRVDEEFQSPFASQSRGYFLFRPRN-NH2; N-terminus assumed) | at least 91% | −65 | – | – | – | remaining at 5 h ([5]; percent of stable, human brush border membrane extracts, five hours, 37° C., read-out: BBM): 13%; potency administered peripherally versus centrally (i.c.v.), on a presumed concentration basis ([2]; i.p. ED50 in mice compared with literature ICV dose in rats): ~300 fold; reduction in food intake [6]: ~30% |
| CC(C)C[C@H](NC(=O)[C@H](CCCCN)NC(=O)[C@H](CCC(N)=O)NC(=O)[C@@H](NC(=O)[C@H](CCCCN)NC(=O)[C@H](CO)NC(=O)[C@H](Cc1ccc(O)cc1)NC(=O)[C@H](Cc1c[nH]cn1)NC(=O)[C@H](Cc1ccccc1)NC(=O)[C@H](CC(C)C)NC(=O)[C@@H](N)Cc1ccccc1)[C@@H](C)O)C(=O)NCC(=O)N[C@@H](CCCCN)C(=O)N[C@@H](CO)C(=O)N[C@@H](CC(N)=O)C(=O)NCC(=O)N[C@@H](Cc1ccc(O)cc1)C(=O)N[C@@H](Cc1ccccc1)C(=O)N[C@@H](CC(C)C)C(=O)N[C@@H](Cc1ccccc1)C(=O)N[C@@H](CCCNC(=N)N)C(=O)N1CCC[C@H]1C(=O)N[C@@H](CCCNC(=N)N)C(=O)N[C@@H](CC(N)=O)C(N)=O [Des-(Val16-Arg29)FN38] (H-FLFHYSKTQKLGKSNGYFLFRPRN-NH2; N-terminus assumed) | – | – | reduction of cumulative food intake | 91 | −42 | – |
| CC(C)C[C@H](NC(=O)[C@H](Cc1ccccc1)NC(=O)[C@@H](N)Cc1ccc(O)cc1)C(=O)N[C@@H](Cc1ccccc1)C(=O)N[C@@H](CCCNC(=N)N)C(=O)N1CCC[C@H]1C(=O)N[C@@H](CCCNC(=N)N)C(=O)N[C@@H](CC(N)=O)C(N)=O [Compound 163291, reference compound] | – | −75 | – | – | – | degradation in vitro in plasma [7]: rapid degradation; activity in food intake assays ([2]; doses between 100-1000 μg/kg (up to 900 nmol/kg)): inactive; difference in potency between U-8 and rNMU-23 ([2]; food intake, mice): at least 1000 fold |
| CC(C)C[C@H](NC(=O)[C@H](Cc1ccccc1)NC(=O)[C@H](Cc1ccc(O)cc1)NC(=O)CNC(=O)[C@H](CCCNC(=N)N)NC(=O)[C@H](CO)NC(=O)[C@H](CCC(N)=O)NC(=O)[C@H](CO)NC(=O)[C@H](C)NC(=O)[C@H](Cc1ccccc1)NC(=O)[C@H](CO)NC(=O)[C@H](Cc1ccc(O)cc1)NC(=O)[C@H](Cc1c[nH]cn1)NC(=O)[C@H](Cc1ccccc1)NC(=O)[C@H](CC(C)C)NC(=O)[C@@H](N)Cc1ccccc1)C(=O)N[C@@H](Cc1ccccc1)C(=O)N[C@@H](CCCNC(=N)N)C(=O)N1CCC[C@H]1C(=O)N[C@@H](CCCNC(=N)N)C(=O)N[C@@H](CC(N)=O)C(N)=O [Des-(Lys7-Pro23)FN38] (H-FLFHYSFASQSRGYFLFRPRN-NH2; N-terminus assumed) | – | – | reduction of cumulative food intake | 95 | −26 | – |
